Reference: patent publication US11806342B2, “Diiodohydroxyquinoline for the treatment of clostridium difficile infection” (Purdue Research Foundation, priority 2019, dated 2023)
In brackets after ≈: the same amount, converted by molar mass. Read-outs that look alike come from different tables or passages of the source.

Legend:
C. difficile NR-49277 [1] = test: Toxin A and B production inhibition, ELISA; type: cell-based, Clostridium difficile; details: 8 hours
Procedure: (§1) To investigate DIHQs toxin production inhibitory activity, toxin A and toxin B levels were measured as described previously. […] An aliquot from each tube was diluted and plated on BHIS agar plates and incubated anaerobically at 37° C. for 24 hours to detect the bacterial count. The total concentration of C. difficile toxin A and B was measured in the supernatant of each tube using enzyme linked immunosorbent assay (ELISA) kit (tgc BIOMICS, Dunwoody, GA) following the manufacturer's instructions. The (OD450-OD620) values, corresponding to the toxin concentration, were measured for DIHQ and control drugs.

[2] = test system: C. difficile ATCC BAA-1870; test: Toxin A and B production inhibition, ELISA; type: cell-based, Clostridium difficile; details: 8 hours
Procedure: as §1

C. difficile ATCC 43255 [3] = test: Toxin A and B production inhibition, ELISA; type: cell-based, Clostridium difficile; details: 8 hours
Procedure: as §1

C. difficile NR-49277 [4] = test: Time kill kinetics assay; type: cell-based, Clostridium difficile; details: C. difficile NR-49277, 5×MIC, 37° C.
Procedure: (§2) Time kill kinetics assay. In order to examine the killing kinetics of DIHQ, a time kill kinetics assay was performed against Clostridium difficile ATCC BAA 1870 and C. difficile NR-49277 as described previously. […] Aliquots were collected from each treatment after 0, 4, 6, 8, 12, and 24 hours of incubation at 37° C. and subsequently serially diluted and plated for viable CFU/mL determination.

[5] = test system: C. difficile ATCC BAA-1870; test: Time kill kinetics assay; type: cell-based, Clostridium difficile; details: C. difficile ATCC BAA-1870, 5×MIC, 37° C.
Procedure: as §2

C. difficile I9 = test: Checkerboard assay, DIHQ with metronidazole or vancomycin; type: cell-based, Clostridium difficile
Procedure: (§3) The fractional inhibitory concentration index (ΣFIC) was calculated for each interaction. Interactions where the ΣFIC index was ≤0.5 were categorized as synergistic (SYN).

[6] = test system: C. difficile ATCC BAA-1870; test: as above; type: cell-based, Clostridium difficile
Procedure: as §3

C. difficile ATCC 43255 [7] = test: as above; type: cell-based, Clostridium difficile
Procedure: as §3

C. difficile ATCC 43255 [8] = test: Initial screening of antiparasitic drugs, broth microdilution MIC; type: cell-based, Clostridium difficile; details: Clostridioides difficile, ATCC43255; initial screening, C. difficile ATCC 43255; read-out: MIC
Procedure: C. difficile strains were grown anaerobically on brain heart infusion supplemented (BHIS) agar plates at 37° C. for 48 hours. Afterwards, a bacterial solution equivalent to 0.5 McFarland standard was prepared and diluted in (BHIS) broth to achieve a bacterial concentration of about 5×10^5 CFU/mL. Drugs were added and serially diluted along the plates. Plates were then, incubated anaerobically at 37° C. for 48 hours. MICs reported in Table (1) are the minimum concentrations of the drugs that could completely suppress the visual growth of bacteria.

[9] = test system: Lactobacillus reuteri HM-102; test: MIC against normal gut microflora, broth microdilution; type: cell-based; details: Lactobacillus reuteri HM-102
Procedure: (§4) In vitro antimicrobial evaluation of diiodohydroxyquinoline against normal microflora. The broth microdilution assay was utilized to determine the MICs of DIHQ and control antibiotics against commensal organisms that compose he human gut microflora, as described elsewhere. A bacterial solution equivalent to 0.5 McFarland standard was prepared and diluted in BHIS broth (for Bifidobacterium and Bacteroides) or in MRS broth (for Lactobacillus) to achieve a bacterial concentration of about 5×10^5 CFU/mL. Then, drugs were added and serially diluted along the plates.

[10] = test system: Bifidobacterium longum HM-845; test: as above; type: cell-based; details: HM845; Bifidobacterium longum HM-845; read-out: MIC
Procedure: as §4

Bacteroides dorei HM-29 = test: as above; type: cell-based; details: Phocaeicola dorei, HM29; Bacteroides dorei HM-29; read-out: MIC
Procedure: as §4

[11] = test system: Bifidobacterium angulatum HM-1189; test: as above; type: cell-based; details: HM1189; Bifidobacterium angulatum HM-1189; read-out: MIC
Procedure: as §4

[12] = test system: Bacteroides fragilis HM-710; test: as above; type: cell-based; details: HM710; Bacteroides fragilis HM-710; read-out: MIC
Procedure: as §4

[13] = test system: Bifidobacterium breve HM-1120; test: as above; type: cell-based; details: HM1120; Bifidobacterium breve HM-1120; read-out: MIC
Procedure: as §4

[14] = test system: Lactobacillus crispatus HM-371; test: as above; type: cell-based; details: HM371; Lactobacillus crispatus HM-371; read-out: MIC
Procedure: as §4

Bacteroides dorei HM-719 = test: as above; type: cell-based; details: Phocaeicola dorei, HM719; Bacteroides dorei HM-719; read-out: MIC
Procedure: as §4

[15] = test system: Bacteroides fragilis HM-709; test: as above; type: cell-based; details: HM709; Bacteroides fragilis HM-709; read-out: MIC
Procedure: as §4

[16] = test system: Bifidobacterium breve HM-411; test: as above; type: cell-based; details: HM411; Bifidobacterium breve HM-411; read-out: MIC
Procedure: as §4

[17] = test system: Lactobacillus casei ATCC 334; test: as above; type: cell-based; details: Lacticaseibacillus casei, ATCC334; Lactobacillus casei ATCC 334; read-out: MIC
Procedure: as §4

[18] = test system: Bacteroides fragilis HM-711; test: as above; type: cell-based; details: HM711; Bacteroides fragilis HM-711; read-out: MIC
Procedure: as §4

Bacteroides dorei HM-717 = test: as above; type: cell-based; details: Phocaeicola dorei, HM717; Bacteroides dorei HM-717; read-out: MIC
Procedure: as §4

Bacteroides dorei HM-718 = test: as above; type: cell-based; details: Phocaeicola dorei, HM718; Bacteroides dorei HM-718; read-out: MIC
Procedure: as §4

[19] = test system: Bifidobacterium adolescentis HM-633; test: as above; type: cell-based; details: HM633; Bifidobacterium adolescentis HM-633; read-out: MIC
Procedure: as §4

[20] = test system: Bifidobacterium longum HM-847; test: as above; type: cell-based; details: HM847; Bifidobacterium longum HM-847; read-out: MIC
Procedure: as §4

[21] = test system: Bacteroides fragilis HM-714; test: as above; type: cell-based; details: HM714; Bacteroides fragilis HM-714; read-out: MIC
Procedure: as §4

[22] = C. difficile ATCC BAA-1870, ¼×MIC
[23] = C. difficile ATCC BAA-1870, ½×MIC
[24] = DIHQ with metronidazole, C. difficile I9
[25] = DIHQ with vancomycin, C. difficile I9
[26] = DIHQ with metronidazole, C. difficile ATCC BAA-1870
[27] = DIHQ with vancomycin, C. difficile ATCC BAA-1870
[28] = DIHQ with metronidazole, C. difficile ATCC 43255
[29] = DIHQ with vancomycin, C. difficile ATCC 43255
[30] = Limosilactobacillus reuteri, HM102, read-out: MIC

## Oc1c(I)cc(I)c2cccnc12 [DIHQ, 5,7-diiodoquinolin-8-ol]
C. difficile NR-49277 [1]; C. difficile NR-49277, ¼×MIC
  inhibition of total toxin production: ~31.8%
C. difficile NR-49277 [1]; C. difficile NR-49277, ½×MIC
  inhibition of total toxin production: ~38.9%
[2]; [22]
  inhibition of total toxin production: 17.8%
[2]; [23]
  inhibition of total toxin production: 27%
C. difficile ATCC 43255 [3]; C. difficile ATCC 43255, ¼×MIC
  inhibition of total toxin production: ~8%
C. difficile ATCC 43255 [3]; C. difficile ATCC 43255, ½×MIC
  inhibition of total toxin production: ~28.5%
C. difficile NR-49277 [4]
  time required to generate a 3-log10 reduction in CFU/mL: 4 hours
  time to complete eradication of the bacteria (below the detection limit, 100 CFU/mL): ≤ 6 h
[5]
  time required to generate a 3-log10 reduction in CFU/mL: six
  time to complete eradication of the bacteria (below the detection limit, 100 CFU/mL): ≤ 24 h
C. difficile I9; C. difficile I9
  MIC of DIHQ combined with metronidazole: 0.06 µg/mL
  MIC of DIHQ combined with vancomycin: 0.06 µg/mL
C. difficile I9; C. difficile I9, Table 4
  MIC alone: 0.06 µg/mL
C. difficile I9; Clostridioides difficile, C. difficile I9, Table 3, read-out: MIC alone
  MIC: 0.06 µg/mL
C. difficile I9; [24]
  Interpretation: ADD (ΣFIC index >0.5 − 1.25 is considered additive (ADD))
  ΣFIC Index: 1.125
C. difficile I9; [25]
  Interpretation: ADD (ΣFIC index >0.5 − 1.25 is considered additive (ADD))
  ΣFIC Index: 1.125
[6]; C. difficile ATCC BAA-1870
  MIC of DIHQ combined with metronidazole: 0.125 µg/mL
  MIC of DIHQ combined with vancomycin: 0.06 µg/mL
[6]; C. difficile ATCC BAA-1870, Table 4
  MIC alone: 1 µg/mL
[6]; Clostridioides difficile, ATCCBAA1870, C. difficile ATCC BAA-1870, Table 3, read-out: MIC alone
  MIC: 1 µg/mL
[6]; [26]
  Interpretation: SYN (ΣFIC index ≤0.5 is considered synergistic (SYN))
  ΣFIC Index: 0.25
[6]; [27]
  Interpretation: SYN (ΣFIC index ≤0.5 is considered synergistic (SYN))
  ΣFIC Index: 0.185
C. difficile ATCC 43255 [7]; C. difficile ATCC 43255
  MIC of DIHQ combined with metronidazole: 0.25 µg/mL
  MIC of DIHQ combined with vancomycin: 0.125 µg/mL
C. difficile ATCC 43255 [7]; C. difficile ATCC 43255, Table 4
  MIC alone: 1 µg/mL
C. difficile ATCC 43255 [7]; Clostridioides difficile, ATCC43255, C. difficile ATCC 43255, Table 3, read-out: MIC alone
  MIC: 1 µg/mL
C. difficile ATCC 43255 [7]; [28]
  Interpretation: SYN (ΣFIC index ≤0.5 is considered synergistic (SYN))
  ΣFIC Index: 0.375
C. difficile ATCC 43255 [7]; [29]
  Interpretation: SYN (ΣFIC index ≤0.5 is considered synergistic (SYN))
  ΣFIC Index: 0.25
C. difficile ATCC 43255 [8]
  MIC: 0.5 µg/mL (≈ 1.26 µM)
[9]
  MIC: >128 µg/mL
[9]; [30]
  MIC: > 128 µg/mL
[10]
  MIC: 64 µg/mL (≈ 161 µM)
Bacteroides dorei HM-29
  MIC: > 128 µg/mL
[11]
  MIC: 128 µg/mL (≈ 322 µM)
[12]
  MIC: > 128 µg/mL
[13]
  MIC: > 128 µg/mL
[14]
  MIC: 64 µg/mL (≈ 161 µM)
Bacteroides dorei HM-719
  MIC: > 128 µg/mL
[15]
  MIC: > 128 µg/mL
[16]
  MIC: > 128 µg/mL
[17]
  MIC: 16 µg/mL (≈ 40.3 µM)
[18]
  MIC: > 128 µg/mL
Bacteroides dorei HM-717
  MIC: > 128 µg/mL
Bacteroides dorei HM-718
  MIC: > 128 µg/mL
[19]
  MIC: 128 µg/mL (≈ 322 µM)
[20]
  MIC: 128 µg/mL (≈ 322 µM)
[21]
  MIC: > 128 µg/mL

## CCc1c(Cl)c(O)c(Cl)c(O)c1C(=O)O[C@H]1[C@H](O)[C@H](OC)[C@H](OC/C2=C\C=C\C[C@H](O)/C(C)=C/[C@H](CC)[C@@H](O[C@@H]3OC(C)(C)[C@@H](OC(=O)C(C)C)[C@H](O)[C@@H]3O)/C(C)=C/C(C)=C/C[C@@H]([C@@H](C)O)OC2=O)O[C@@H]1C [Fidaxomicin, fidaxomicin]
C. difficile NR-49277 [1]; C. difficile NR-49277, ¼×MIC
  inhibition of total toxin production: 58.8%
C. difficile NR-49277 [1]; C. difficile NR-49277, ½×MIC
  inhibition of total toxin production: 67.4%
[2]; [22]
  inhibition of total toxin production: 31.9%
[2]; [23]
  inhibition of total toxin production: 46.2%
C. difficile ATCC 43255 [3]; C. difficile ATCC 43255, ¼×MIC
  inhibition of total toxin production: 14.3%
C. difficile ATCC 43255 [3]; C. difficile ATCC 43255, ½×MIC
  inhibition of total toxin production: 37%
[9]; [30]
  MIC: > 128 µg/mL
[10]
  MIC: ≤ 1 µg/mL
Bacteroides dorei HM-29
  MIC: > 128 µg/mL
[11]
  MIC: ≤ 1 µg/mL
[12]
  MIC: > 128 µg/mL
[13]
  MIC: ≤ 1 µg/mL
[14]
  MIC: > 128 µg/mL
Bacteroides dorei HM-719
  MIC: 128 µg/mL (≈ 121 µM)
[15]
  MIC: > 128 µg/mL
[16]
  MIC: 2 µg/mL (≈ 1.89 µM)
[17]
  MIC: > 128 µg/mL
[18]
  MIC: > 128 µg/mL
Bacteroides dorei HM-717
  MIC: > 128 µg/mL
Bacteroides dorei HM-718
  MIC: > 128 µg/mL
[19]
  MIC: ≤ 1 µg/mL
[20]
  MIC: ≤ 1 µg/mL
[21]
  MIC: > 128 µg/mL
